The values that follow come from BindingDB's records for doi:10.1021/acs.jmedchem.0c00774 (Istituto Italiano Di Tecnologia, 2020).

Usually IC50 stands for the concentration at which inhibition is half-maximal.

This assay has as its target Prostaglandin G/H synthase 1 (Homo sapiens, UniProt P23219). Nature of the assay: Inhibition of human COX1.

Prostaglandin G/H synthase 1, sequence (P23219 whole entry): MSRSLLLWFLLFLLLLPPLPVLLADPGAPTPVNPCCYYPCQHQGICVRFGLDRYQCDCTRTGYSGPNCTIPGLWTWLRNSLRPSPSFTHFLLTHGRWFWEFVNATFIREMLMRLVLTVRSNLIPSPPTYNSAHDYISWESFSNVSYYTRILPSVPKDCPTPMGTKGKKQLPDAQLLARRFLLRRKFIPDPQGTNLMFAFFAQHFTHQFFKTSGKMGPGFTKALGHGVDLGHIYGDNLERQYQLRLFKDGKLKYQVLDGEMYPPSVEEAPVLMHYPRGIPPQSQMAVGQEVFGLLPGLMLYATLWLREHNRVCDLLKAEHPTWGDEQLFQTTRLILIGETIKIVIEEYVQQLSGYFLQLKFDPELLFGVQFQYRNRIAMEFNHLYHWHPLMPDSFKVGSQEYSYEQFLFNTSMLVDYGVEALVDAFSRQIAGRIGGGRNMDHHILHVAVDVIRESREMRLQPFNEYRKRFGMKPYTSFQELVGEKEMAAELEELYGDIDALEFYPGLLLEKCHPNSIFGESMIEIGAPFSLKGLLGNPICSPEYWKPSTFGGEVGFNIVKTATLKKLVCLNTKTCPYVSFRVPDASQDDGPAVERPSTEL

Regarding `CN(C)c1ccc(Nc2nc(-c3ccncc3)nc3c2CC(N)CC3)cc1` (stereo unspecified), half-maximal inhibition (IC50) was put at 4 µM.
